Experimental data taken from US9611265B2, “Tropomyosin-related kinase (TRK) inhibitors” (Genzyme Corporation, priority 2013, dated 2017).

Legend:
[1] = system: Monosodium Lodoacetate Induced Osteoarthritis; assay: Monosodium Iodoacetate Induced Osteoarthritis, weight bearing; type: in vivo, Male Wistar rats; settings: for comparison with MIA/LRS at day 35: day 35, p<0.05
Description: Male Wistar rats were acclimated to the testing facility for 5 days. The rats were individually housed in micro-isolator shoe-box polycarbonate cages with cob bedding and water bottles. Dry pelleted food of known composition and nutritional components was provided ad libitum Animals were randomized by treatment type using an online random number generator. Each treatment group was assigned a number, entered into the random number generator, recorded then translated back to the associated treatment. All injections were given in the left leg unless the treatment indicated “Contralateral” in which case the injection was given in the right leg. Both legs were shaved on all animals at the time of the treatment injections to blind the test administrator. The rats were weighed the day prior to injection with monosodium iodoacetate (MIA), the agent used to induce osteoarthritis in the animals. The day of injection, rats from groups 2-8 received a subcutaneous (SC) dose of buprenorphine at least one hour prior to induction. […] Naïve animals were then placed in recovery. All other animals received an injection of MIA. In animals receiving MIA, the hind leg was flexed and an injection of MIA (25 μL) was injected into the intra-articular space using a 27 gauge ½ inch needle. Standard postoperative care was performed (twice daily for 48 hours). On Day 8 the test article was administered as described above. On Days −1, 7, 14, 21, 28, and 35 post-induction, weight bearing was assessed. A weight bearing scale was utilized using a plexiglass chamber to assess the amount of weight distributed in each hind limb. The animals were acclimated to the chamber for at least 5 minutes prior to testing and the weight distribution was recorded 5 times. The animals were terminated at day 36. Both stifles were collected from each animal; the skin was removed from the joint and the patella was removed while leaving as much of the fat pad intact with the joint. The stifle was placed in the appropriate cassette with rolled gauze to secure the stifle in the cassette and then placed into 4% Paraformaldehyde. These samples were examined histologically.

PGPS Knee Arthritis = assay: Reactivated Peptidoglycan-Polysaccharide Knee Arthritis; type: in vivo, Male Lewis rats; settings: for gait scores and deficiency, first reactivation: days 1-4
Description: Male Lewis rats were acclimated to the testing facility for 7 days. The rats were housed in 5 per cage in shoe-box polycarbonate cages with wire tops, wood chip bedding and suspended food and water bottles. On day −21, the male Lewis rats were randomized into treatment groups by body weight. The rats were anesthetized and injected with peptidoglycan-polysaccharide (PGPS) into the right knee to induce PGPS arthritis. Arthritis was reactivated on days 0 and 14 by an IV tail injection of PGPS. […] Gait analysis was performed by applying ink to the ventral surface of the foot and documenting weight bearing during movement across paper. […] Right knees were removed, trimmed of extraneous tissue, and collected into 10% neutral buffered formalin. After two days in the formalin buffer and three days in 10% formic acid decalcifier, the knees were cut into two approximately equal halves in the frontal plane and processed for paraffin embedding and stained with T.Blue. Histological examinations were subsequently performed for bone resorption, inflammation, pannus and cartilage damage. […] Gait scores were analyzed using a Kruskal-Wallis test (non-parametric ANOVA) with Dunn's multiple comparison post-test. Histopathology scores were analyzed using a Kruskal-Wallis test (non-parametric ANOVA) with Dunn's multiple comparison post-test.

[2] = intra-articular on day -7 (Triamcinolone 0.06 mg; test compound 1 mg)
[3] = Triamcinolone 0.06 mg intra-articular

SMILES	weight bearing efficacy ([1]; 10 μg Contralateral)	weight bearing efficacy ([1]; 10 μg Ipsilateral, intra-articular on Day 8)	weight bearing efficacy ([1]; 30 μg Contralateral)	comparison with MIA/LRS at day 35 ([1]; 30 μg Ipsilateral)	weight bearing efficacy ([1]; 30 μg Ipsilateral, intra-articular on Day 8)	systemic pain relief (weight bearing) ([1]; 100 μg Contralateral, 1-4 weeks)	comparison with MIA/LRS at day 35 ([1]; 100 μg Ipsilateral)	weight bearing efficacy ([1]; 100 μg Ipsilateral, intra-articular on Day 8)	body weight results ([1]; 10-100 μg intra-articular)	histopathology of the knee joint ([1]; day 36)	reduction of AUC for scores and deficiency, first reactivation (PGPS Knee Arthritis; 1 mg intra-articular)	reduction of AUC for scores and deficiency, second reactivation (PGPS Knee Arthritis; 1 mg intra-articular)	reduction of summed AUC for deficiency (PGPS Knee Arthritis; 1 mg intra-articular) [%]	histopathology, reductions in all parameters (PGPS Knee Arthritis; day 18, bone resorption, inflammation, pannus, cartilage damage (Triamcinolone 0.06 mg; test compound 1 mg))	knee caliper measurements (PGPS Knee Arthritis; [2])	reduction in knee caliper AUC (PGPS Knee Arthritis; [2])	gait scores and deficiency, first reactivation (PGPS Knee Arthritis; [2])	gait scores and deficiency, second reactivation (PGPS Knee Arthritis; intra-articular on day -7 (Triamcinolone 0.06 mg; test compound 1 mg), days 15-18)	reduction of gait scores and deficiency AUC, each reactivation calculated separately (PGPS Knee Arthritis; [3])	reduction of gait scores and deficiency AUC, summed (PGPS Knee Arthritis; [3])
COc1ccc(COc2ccc(Cn3c(N)nc4cc(-c5cnn(C)c5)cnc43)cc2OC)cc1 [Ex. 3-15, 3-(3-Methoxy-4-((4-methoxybenzyl)oxy)benzyl)-6-(1-methyl-1H-pyrazol-4-yl)-3H-imidazo[4,5-b]pyridin-2-amine]	efficacy at 3 and 4 weeks following administration	efficacy was observed at 2 through 4 weeks following administration	efficacy at only the 3 week timepoint	MIA/LRS was significantly worse	effective throughout the four weeks following administration	did not show systemic pain relief at any timepoint	MIA/LRS was significantly worse	effective throughout the four weeks following administration	No adverse observations	no adverse changes	92-93%	85-86%	84	49-94%	significantly reduced on day 14	generally unaffected by treatment	significant reductions in gait scores and deficiency throughout the first reactivation	Scores were significantly reduced throughout the second reactivation, and reductions in deficiency were significant on days 15, 17, and 18	–	–
C[C@]12C=CC(=O)C=C1CC[C@H]1[C@@H]3C[C@@H](O)[C@](O)(C(=O)CO)[C@@]3(C)C[C@H](O)[C@@]12F [Triamcinolone, reference compound]	–	–	–	–	–	–	–	–	–	–	–	–	–	–	significantly reduced on days 2, 4, 16, and 18	53-106%	significantly reduced gait scores and deficiency throughout the first reactivation (days 1-4)	–	74-99%	88-92%
